Data on four molecules can be found in the kinase profiling compilation of Christmann-Franck et al. (2016).

What all share (assay): KINOMEscan competition binding
Details in all cases: compound 10.0 µM

Test [1] has as its system ABL1 (human), P00519 [F317I].
Test [2] deals with ABL1 (human), P00519 [Q252H].
The target in another test is ACVR2B (human) (UniProt Q13705).
The target of a further test is CASK (human) (UniProt O14936).
Another test deals with CDK13 (human) (UniProt Q14004).
Another test has as its target CDK4 CCND3 (human) (UniProt P11802+P30281).
The next test addresses CDKL5 (human) (UniProt O76039).
The next test deals with CPK1 (P.falciparum).
For the next test, the target named is CRK2 (P.falciparum) (UniProt P61075).
The target in a further test is CSNK1A1L (human) (UniProt Q8N752).
Another test concerns the target DYRK1A (human) (UniProt Q13627).
Test [3] deals with EGFR (human), P00533 [T790M/L858R].
The next test has as its target EIF2AK1 (human) (UniProt Q9BQI3).
In another test the target is ERBB3 (human) (UniProt P21860).
A further test addresses GRK1 (human) (UniProt Q15835).
In the next test the target is GRK4 (human) (UniProt P32298).
For another test, the target named is GRK7 (human) (UniProt Q8WTQ7).
The next test concerns the target HIPK2 (human) (UniProt Q9H2X6).
The next test has as its target HUNK (human) (UniProt P57058).
A further test deals with ICK (human) (UniProt Q9UPZ9).
For another test, the target named is IRAK1 (human) (UniProt P51617).
The next test addresses LRRK2 (human) (UniProt Q5S007).
In test [4] the test system is LRRK2 (human), Q5S007 [G2019S].
A further test deals with MAK (human) (UniProt P20794).
For the next test, the target named is MAP2K7 (human) (UniProt O14733).
The target in the next test is MAP3K15 (human) (UniProt Q6ZN16).
Another test has as its target MARK3 (human) (UniProt P27448).
The target in the next test is MATK (human) (UniProt P42679).
The target in the next test is NEK4 (human) (UniProt P51957).
The target of the next test is PAK3 (human) (UniProt O75914).
Another test has as its target PI4KB (human) (UniProt Q9UBF8).
The test system of test [5] is PIK3CA (human), P42336 [E545A].
For another test, the target named is PKN3 (M.tuberculosis) (UniProt Q6P5Z2).
The target in the next test is PLK2 (human) (UniProt Q9NYY3).
In a further test the target is PRKG2 (human) (UniProt Q13237).
The target of another test is ROCK1 (human) (UniProt Q13464).
A further test has as its target SBK1 (human) (UniProt Q52WX2).
The target of another test is SGK110 (human) (UniProt P0C264).
For the next test, the target named is SIK3 (human) (UniProt Q9Y2K2).
The target in another test is SNRK (human) (UniProt Q9NRH2).
The target of another test is VRK2 (human) (UniProt Q86Y07).
For the next test, the target named is YSK4 (human) (UniProt Q56UN5).

Sequence of ROCK1 (human) (Q13464 whole entry, looked up): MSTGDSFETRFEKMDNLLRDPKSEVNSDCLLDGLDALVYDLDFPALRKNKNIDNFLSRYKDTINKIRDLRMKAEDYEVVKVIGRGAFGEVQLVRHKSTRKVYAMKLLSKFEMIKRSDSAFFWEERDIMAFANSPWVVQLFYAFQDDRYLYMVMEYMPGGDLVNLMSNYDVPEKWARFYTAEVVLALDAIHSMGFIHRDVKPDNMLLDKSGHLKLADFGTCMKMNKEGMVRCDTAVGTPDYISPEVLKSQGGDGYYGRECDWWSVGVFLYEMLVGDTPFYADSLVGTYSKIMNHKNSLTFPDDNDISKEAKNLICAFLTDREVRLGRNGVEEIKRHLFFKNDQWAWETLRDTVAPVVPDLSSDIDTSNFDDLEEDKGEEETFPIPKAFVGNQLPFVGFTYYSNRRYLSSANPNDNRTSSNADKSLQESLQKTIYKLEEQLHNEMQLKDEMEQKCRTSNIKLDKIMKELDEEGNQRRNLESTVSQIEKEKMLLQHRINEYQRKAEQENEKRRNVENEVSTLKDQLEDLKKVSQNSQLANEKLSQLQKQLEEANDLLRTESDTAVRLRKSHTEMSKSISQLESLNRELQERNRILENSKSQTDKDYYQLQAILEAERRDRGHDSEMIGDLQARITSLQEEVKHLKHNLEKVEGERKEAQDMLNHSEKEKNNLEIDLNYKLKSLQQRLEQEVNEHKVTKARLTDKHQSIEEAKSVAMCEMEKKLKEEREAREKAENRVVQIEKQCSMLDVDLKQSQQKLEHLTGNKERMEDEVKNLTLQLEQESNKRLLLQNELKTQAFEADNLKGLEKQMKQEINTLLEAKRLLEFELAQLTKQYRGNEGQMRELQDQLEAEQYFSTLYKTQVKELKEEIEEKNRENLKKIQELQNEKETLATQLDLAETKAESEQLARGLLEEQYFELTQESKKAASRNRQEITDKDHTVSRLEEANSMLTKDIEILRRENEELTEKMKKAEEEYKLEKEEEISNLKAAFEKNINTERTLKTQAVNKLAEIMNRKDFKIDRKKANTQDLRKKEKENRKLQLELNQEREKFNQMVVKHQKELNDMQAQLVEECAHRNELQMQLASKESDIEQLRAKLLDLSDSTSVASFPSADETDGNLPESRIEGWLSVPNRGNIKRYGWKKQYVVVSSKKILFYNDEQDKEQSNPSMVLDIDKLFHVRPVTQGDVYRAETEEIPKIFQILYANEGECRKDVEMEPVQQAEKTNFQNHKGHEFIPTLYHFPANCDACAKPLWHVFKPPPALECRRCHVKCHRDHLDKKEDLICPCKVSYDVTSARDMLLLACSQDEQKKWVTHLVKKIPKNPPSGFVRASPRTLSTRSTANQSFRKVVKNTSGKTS
Sequence of SNRK (human) (Q9NRH2 whole entry, looked up): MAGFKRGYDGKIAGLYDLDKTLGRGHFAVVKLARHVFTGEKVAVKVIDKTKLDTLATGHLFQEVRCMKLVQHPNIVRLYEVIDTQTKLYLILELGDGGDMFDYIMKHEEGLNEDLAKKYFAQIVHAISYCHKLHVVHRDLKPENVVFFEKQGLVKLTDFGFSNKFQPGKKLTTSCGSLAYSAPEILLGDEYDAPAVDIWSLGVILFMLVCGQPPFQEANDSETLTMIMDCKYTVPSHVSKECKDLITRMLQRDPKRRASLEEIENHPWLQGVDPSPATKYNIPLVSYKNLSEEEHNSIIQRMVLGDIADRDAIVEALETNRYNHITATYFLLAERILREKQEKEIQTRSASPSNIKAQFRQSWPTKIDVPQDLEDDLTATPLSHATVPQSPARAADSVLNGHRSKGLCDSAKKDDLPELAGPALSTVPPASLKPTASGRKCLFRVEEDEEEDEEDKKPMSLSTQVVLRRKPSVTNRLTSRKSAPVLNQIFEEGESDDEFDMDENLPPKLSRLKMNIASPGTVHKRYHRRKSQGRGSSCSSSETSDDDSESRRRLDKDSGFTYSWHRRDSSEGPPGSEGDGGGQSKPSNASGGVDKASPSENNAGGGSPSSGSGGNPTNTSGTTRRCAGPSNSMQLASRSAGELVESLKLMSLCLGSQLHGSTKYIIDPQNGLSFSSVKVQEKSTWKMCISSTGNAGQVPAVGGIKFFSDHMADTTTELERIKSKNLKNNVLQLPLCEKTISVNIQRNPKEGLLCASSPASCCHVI
Sequence of SBK1 (human) (Q52WX2 whole entry, looked up): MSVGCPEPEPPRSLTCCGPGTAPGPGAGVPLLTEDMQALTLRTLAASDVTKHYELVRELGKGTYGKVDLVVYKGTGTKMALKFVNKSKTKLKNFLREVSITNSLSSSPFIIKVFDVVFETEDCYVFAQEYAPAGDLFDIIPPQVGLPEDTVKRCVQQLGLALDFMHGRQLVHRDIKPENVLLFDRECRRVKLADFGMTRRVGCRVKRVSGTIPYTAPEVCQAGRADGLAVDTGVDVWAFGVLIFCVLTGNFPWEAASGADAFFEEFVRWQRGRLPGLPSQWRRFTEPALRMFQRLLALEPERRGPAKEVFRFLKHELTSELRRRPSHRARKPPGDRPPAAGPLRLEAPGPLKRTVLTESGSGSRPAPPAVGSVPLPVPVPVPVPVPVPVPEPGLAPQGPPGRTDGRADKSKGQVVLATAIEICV
Sequence of PAK3 (human) (O75914 whole entry, looked up): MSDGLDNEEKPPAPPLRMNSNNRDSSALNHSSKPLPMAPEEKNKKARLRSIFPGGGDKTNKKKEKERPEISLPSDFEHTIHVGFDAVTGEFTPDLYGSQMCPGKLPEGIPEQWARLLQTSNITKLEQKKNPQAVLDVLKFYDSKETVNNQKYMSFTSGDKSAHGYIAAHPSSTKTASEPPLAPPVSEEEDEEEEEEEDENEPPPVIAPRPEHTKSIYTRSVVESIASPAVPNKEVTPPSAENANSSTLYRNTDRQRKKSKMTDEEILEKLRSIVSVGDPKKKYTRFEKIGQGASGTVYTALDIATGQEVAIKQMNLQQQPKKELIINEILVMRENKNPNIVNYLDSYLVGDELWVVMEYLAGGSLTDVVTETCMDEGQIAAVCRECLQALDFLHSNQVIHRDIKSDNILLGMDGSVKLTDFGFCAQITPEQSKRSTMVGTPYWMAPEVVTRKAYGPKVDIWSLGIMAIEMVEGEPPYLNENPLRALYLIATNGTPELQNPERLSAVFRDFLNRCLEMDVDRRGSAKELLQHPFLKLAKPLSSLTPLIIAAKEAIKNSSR
Sequence of ACVR2B (human) (Q13705 whole entry, looked up): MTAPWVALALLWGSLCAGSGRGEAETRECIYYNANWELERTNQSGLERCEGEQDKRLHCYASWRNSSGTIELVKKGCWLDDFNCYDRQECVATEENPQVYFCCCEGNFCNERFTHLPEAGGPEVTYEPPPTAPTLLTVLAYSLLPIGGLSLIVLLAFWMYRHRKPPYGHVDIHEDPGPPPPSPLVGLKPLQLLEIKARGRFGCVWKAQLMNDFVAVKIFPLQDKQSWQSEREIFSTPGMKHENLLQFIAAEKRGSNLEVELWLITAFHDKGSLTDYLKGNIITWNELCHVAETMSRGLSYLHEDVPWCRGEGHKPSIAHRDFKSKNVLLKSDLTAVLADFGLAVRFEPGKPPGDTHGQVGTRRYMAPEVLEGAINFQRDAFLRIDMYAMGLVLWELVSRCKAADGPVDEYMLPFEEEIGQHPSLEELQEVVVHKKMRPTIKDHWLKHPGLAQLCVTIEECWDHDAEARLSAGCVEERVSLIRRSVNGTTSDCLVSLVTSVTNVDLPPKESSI
Sequence of GRK1 (human) (Q15835 whole entry, looked up): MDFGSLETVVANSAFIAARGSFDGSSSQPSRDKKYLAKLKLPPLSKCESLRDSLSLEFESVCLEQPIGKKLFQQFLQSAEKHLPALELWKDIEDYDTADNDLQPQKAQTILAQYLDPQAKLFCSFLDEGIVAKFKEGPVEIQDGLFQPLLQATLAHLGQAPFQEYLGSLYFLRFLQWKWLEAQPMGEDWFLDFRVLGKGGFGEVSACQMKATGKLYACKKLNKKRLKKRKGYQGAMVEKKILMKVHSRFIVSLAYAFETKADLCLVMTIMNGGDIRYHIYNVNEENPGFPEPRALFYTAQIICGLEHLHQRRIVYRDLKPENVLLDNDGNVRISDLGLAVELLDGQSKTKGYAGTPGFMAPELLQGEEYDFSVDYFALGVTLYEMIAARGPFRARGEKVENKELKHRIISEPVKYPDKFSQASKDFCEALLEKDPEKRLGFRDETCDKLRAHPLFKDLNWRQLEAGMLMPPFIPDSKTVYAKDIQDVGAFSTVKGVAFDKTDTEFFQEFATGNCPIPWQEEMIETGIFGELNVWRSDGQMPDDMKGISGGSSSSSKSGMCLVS
Sequence of MATK (human) (P42679 whole entry, looked up): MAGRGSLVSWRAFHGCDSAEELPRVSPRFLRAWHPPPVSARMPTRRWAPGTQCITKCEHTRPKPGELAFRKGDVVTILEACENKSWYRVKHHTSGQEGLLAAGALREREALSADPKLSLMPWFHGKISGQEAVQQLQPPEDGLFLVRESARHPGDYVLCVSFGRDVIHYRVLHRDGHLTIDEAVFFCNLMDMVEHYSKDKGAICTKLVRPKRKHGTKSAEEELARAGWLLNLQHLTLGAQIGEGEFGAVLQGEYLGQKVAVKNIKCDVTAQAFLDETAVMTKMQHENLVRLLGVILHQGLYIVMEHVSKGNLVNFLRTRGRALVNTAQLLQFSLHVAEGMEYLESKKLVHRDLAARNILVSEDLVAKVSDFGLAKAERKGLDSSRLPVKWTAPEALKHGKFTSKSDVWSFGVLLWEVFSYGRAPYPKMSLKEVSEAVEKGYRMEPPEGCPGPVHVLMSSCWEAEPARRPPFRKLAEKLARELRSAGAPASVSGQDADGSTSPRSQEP
Sequence of SGK110 (human) (P0C264 whole entry, looked up): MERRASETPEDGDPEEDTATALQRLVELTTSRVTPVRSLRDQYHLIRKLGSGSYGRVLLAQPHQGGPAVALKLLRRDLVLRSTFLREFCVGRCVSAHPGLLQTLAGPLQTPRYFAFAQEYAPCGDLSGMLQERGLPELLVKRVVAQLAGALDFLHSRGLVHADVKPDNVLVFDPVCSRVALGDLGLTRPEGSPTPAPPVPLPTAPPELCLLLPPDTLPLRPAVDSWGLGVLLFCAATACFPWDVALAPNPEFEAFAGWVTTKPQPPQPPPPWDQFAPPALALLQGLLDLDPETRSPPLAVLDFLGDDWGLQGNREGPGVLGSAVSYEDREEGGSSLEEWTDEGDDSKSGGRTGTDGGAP

`CCN1CCN(Cc2ccc(NC(=O)c3ccc(C)c(Oc4ccnc5[nH]ccc45)c3)cc2C(F)(F)F)CC1`: the results for the kinase still bound, per cent of control in test [1] and in test [2] were 0.05% and 0.4%, respectively.

As to `COc1cc(N2CCC(N3CCN(C)CC3)CC2)ccc1Nc1ncc(Cl)c(Nc2ccccc2S(=O)(=O)C(C)C)n1`, the kinase still bound, per cent of control in [1] was 0.45%; in test [2] it was 2.2%.

With `CCOc1cc(N2CCC(N3CCCCC3)CC2)ccc1Nc1nc(Nc2ccccc2S(=O)(=O)C(C)C)c2cn[nH]c2n1`, the kinase still bound, per cent of control at ACVR2B (human) came to 100%; at CASK (human) it was 100%; at CDK13 (human), 100%; on CDK4 CCND3 (human), 100%; on CDKL5 (human), 100%; with CPK1 (P.falciparum), 44%. Further, the kinase still bound, per cent of control on CRK2 (P.falciparum) turned out to be 100%; at CSNK1A1L (human), 78%; on DYRK1A (human), 63%; in test [3] it was 25%; at EIF2AK1 (human) it was 100%; at ERBB3 (human) it was 55%. For the same molecule, the kinase still bound, per cent of control at GRK1 (human) turned out to be 98%; on GRK4 (human), 92%; at GRK7 (human), 100%; at HIPK2 (human) it was 89%; at HUNK (human) it was 100%; on ICK (human), 89%. Also, the kinase still bound, per cent of control came out at 93% at IRAK1 (human); 0.65% on LRRK2 (human); 4.8% in [4]; 100% on MAK (human); 78% at MAP2K7 (human); 77% on MAP3K15 (human). Also, the kinase still bound, per cent of control on MARK3 (human) came out at 100%; at MATK (human) it was 100%; at NEK4 (human) it was 74%; at PAK3 (human), 59%; at PI4KB (human) it was 58%; in [5], 100%. Moreover, the kinase still bound, per cent of control at PKN3 (M.tuberculosis) was 75%; on PLK2 (human), 100%; on PRKG2 (human), 100%; at ROCK1 (human) it was 4.8%; at SBK1 (human) it was 57%; at SGK110 (human), 100%. The kinase still bound, per cent of control was determined as 100% on SIK3 (human), 40% on SNRK (human), 68% on VRK2 (human) and 100% on YSK4 (human).

As to `CCN1CCN(Cc2ccc(NC(=O)c3ccc(C)c(/C=C/c4cnc(Nc5cc(N6CCNCC6)nc(C)n5)cn4)c3)cc2C(F)(F)F)CC1`, the kinase still bound, per cent of control on ACVR2B (human) was 92%; at CASK (human), 72%; at CDK13 (human), 46%; at CDK4 CCND3 (human), 64%; at CDKL5 (human) it was 13%; in the test with CPK1 (P.falciparum), 0.2%. In addition, the kinase still bound, per cent of control on CRK2 (P.falciparum) was 55%; on CSNK1A1L (human), 99%; at DYRK1A (human), 44%; in test [3] it was 65%; at EIF2AK1 (human), 100%; on ERBB3 (human), 100%. For the same molecule, the kinase still bound, per cent of control on GRK1 (human) stood at 100%; at GRK4 (human) it was 80%; at GRK7 (human), 73%; on HIPK2 (human) it was 49%; on HUNK (human), 93%; at ICK (human), 71%. For the same molecule, the kinase still bound, per cent of control is 50% on IRAK1 (human); 63% on LRRK2 (human); 75% in [4]; 49% at MAK (human); 30% at MAP2K7 (human); 100% at MAP3K15 (human). The kinase still bound, per cent of control at MARK3 (human) was found to be 58%; at MATK (human) it was 100%; at NEK4 (human) it was 28%; on PAK3 (human), 14%; on PI4KB (human), 63%; in test [5], 100%. For the same molecule, the kinase still bound, per cent of control on PKN3 (M.tuberculosis) was found to be 100%; on PLK2 (human) it was 69%; on PRKG2 (human), 88%; at ROCK1 (human), 100%; at SBK1 (human), 82%; on SGK110 (human), 100%. Also, the kinase still bound, per cent of control at SIK3 (human) amounted to 100%; at SNRK (human) it was 84%; on VRK2 (human) it was 62%; at YSK4 (human), 0%.
